Measured values as given in ChEMBL document CHEMBL5325492, “PROTACs Targeting MLKL Protect Cells from Necroptosis” (J Med Chem, 2023).
Activity calls are given as the source filed them. No cut-off for these calls is given here.

Experiments:
[1] = target: T1, Protein cereblon/Mixed lineage kinase domain-like protein (Homo sapiens, UniProt Q8NB16+Q96SW2); test: PROTAC activity at CRBN/MLKL in TSZ-induced human HT29 cells assessed as suppression of phosphorylated protein in cell lysates at 10 uM incubated for 8 hrs measured by capillary immunoassay; assay type: subcellular; settings: HT-29
Target sequence in this assay (Q96SW2 whole entry, looked up, one chain of several, the tested form may be a part): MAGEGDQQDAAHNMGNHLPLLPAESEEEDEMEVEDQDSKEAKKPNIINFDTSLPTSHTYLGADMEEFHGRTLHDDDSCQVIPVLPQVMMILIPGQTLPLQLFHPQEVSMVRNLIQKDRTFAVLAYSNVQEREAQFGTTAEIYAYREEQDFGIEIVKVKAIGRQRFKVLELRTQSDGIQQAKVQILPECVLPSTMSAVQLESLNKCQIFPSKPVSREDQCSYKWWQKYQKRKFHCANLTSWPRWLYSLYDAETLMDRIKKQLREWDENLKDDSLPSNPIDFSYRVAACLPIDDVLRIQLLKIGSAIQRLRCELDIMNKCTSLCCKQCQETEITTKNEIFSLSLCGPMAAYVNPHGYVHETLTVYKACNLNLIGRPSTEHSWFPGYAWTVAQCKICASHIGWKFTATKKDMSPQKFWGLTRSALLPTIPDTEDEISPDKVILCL

[2] = target: T1, Protein cereblon/Mixed lineage kinase domain-like protein; test: PROTAC activity at CRBN/MLKL in human MKN74 cells assessed as remaining protein level in cell lysates at 0.1 to 10 uM incubated for 24 hrs measured by capillary immunoassay; assay type: subcellular; settings: dose 0.1-10 µM
Target sequence in this assay (Q96SW2 whole entry, looked up, one chain of several, the tested form may be a part): as above

[3] = target: T2, Mixed lineage kinase domain-like protein (Homo sapiens) (UniProt Q8NB16); test: Induction of MLKL degradation in human HT-29 cells assessed as remaining protein level in cell lysates incubated for 24 hrs measured by capillary immunoassay; assay type: subcellular
T2 sequence (whole entry): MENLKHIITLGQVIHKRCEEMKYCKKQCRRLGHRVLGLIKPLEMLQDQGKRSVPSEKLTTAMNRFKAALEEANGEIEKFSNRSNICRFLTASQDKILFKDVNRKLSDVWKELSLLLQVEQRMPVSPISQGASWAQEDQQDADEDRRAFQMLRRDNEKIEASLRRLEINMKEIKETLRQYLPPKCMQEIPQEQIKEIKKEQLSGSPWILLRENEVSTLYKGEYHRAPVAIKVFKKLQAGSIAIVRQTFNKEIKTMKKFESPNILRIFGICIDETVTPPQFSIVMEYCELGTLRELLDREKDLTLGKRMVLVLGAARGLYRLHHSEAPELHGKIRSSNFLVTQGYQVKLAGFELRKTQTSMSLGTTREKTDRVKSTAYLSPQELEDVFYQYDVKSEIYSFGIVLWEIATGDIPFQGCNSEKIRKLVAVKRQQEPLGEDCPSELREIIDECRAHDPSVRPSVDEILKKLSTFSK

[4] = target: T1, Protein cereblon/Mixed lineage kinase domain-like protein; test: PROTAC activity at CRBN/MLKL in human HEK-a cells assessed as remaining protein level in cell lysates at 0.1 to 10 uM incubated for 24 hrs measured by capillary immunoassay; assay type: subcellular; settings: dose 0.1-10 µM
Target sequence in this assay (Q96SW2 whole entry, looked up, one chain of several, the tested form may be a part): as the sequence (Q96SW2 whole entry, looked up, one chain of several, the tested form may be a part) above

[5] = target: T1, Protein cereblon/Mixed lineage kinase domain-like protein; test: PROTAC activity at CRBN/MLKL in TSZ-induced human HT29 cells assessed as remaining protein level in cell lysates preincubated with MG-132 for 30 mins followed by treated at 10 uM for 8 hrs measured by capillary immunoassay; assay type: subcellular; settings: HT-29
Target sequence in this assay (Q96SW2 whole entry, looked up, one chain of several, the tested form may be a part): as the sequence (Q96SW2 whole entry, looked up, one chain of several, the tested form may be a part) above

[6] = target: Protein cereblon/Mixed lineage kinase domain-like protein (Mus musculus) (UniProt Q8C7D2+Q9D2Y4); test: PROTAC activity at CRBN/MLKL in mouse NIH-3T3 cells assessed as remaining protein level in cell lysates at 0.1 to 10 uM incubated for 24 hrs measured by capillary immunoassay; assay type: subcellular; settings: dose 0.1-10 µM
Protein cereblon/Mixed lineage kinase domain-like protein (Mus musculus), sequence (Q8C7D2 whole entry, looked up, the tested form may be a part): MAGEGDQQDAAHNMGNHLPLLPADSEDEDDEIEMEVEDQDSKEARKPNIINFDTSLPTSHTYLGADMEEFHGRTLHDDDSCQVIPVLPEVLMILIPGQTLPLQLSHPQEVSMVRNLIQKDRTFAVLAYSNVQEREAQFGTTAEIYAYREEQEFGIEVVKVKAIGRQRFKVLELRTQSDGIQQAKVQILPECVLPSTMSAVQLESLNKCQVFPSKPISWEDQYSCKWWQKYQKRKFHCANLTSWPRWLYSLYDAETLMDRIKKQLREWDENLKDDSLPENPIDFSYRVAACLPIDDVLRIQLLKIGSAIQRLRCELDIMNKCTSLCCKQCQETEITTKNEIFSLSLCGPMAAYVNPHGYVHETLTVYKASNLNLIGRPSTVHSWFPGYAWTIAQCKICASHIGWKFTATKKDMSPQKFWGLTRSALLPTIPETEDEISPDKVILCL
Protein cereblon/Mixed lineage kinase domain-like protein (Mus musculus), sequence (Q9D2Y4 whole entry, looked up, the tested form may be a part): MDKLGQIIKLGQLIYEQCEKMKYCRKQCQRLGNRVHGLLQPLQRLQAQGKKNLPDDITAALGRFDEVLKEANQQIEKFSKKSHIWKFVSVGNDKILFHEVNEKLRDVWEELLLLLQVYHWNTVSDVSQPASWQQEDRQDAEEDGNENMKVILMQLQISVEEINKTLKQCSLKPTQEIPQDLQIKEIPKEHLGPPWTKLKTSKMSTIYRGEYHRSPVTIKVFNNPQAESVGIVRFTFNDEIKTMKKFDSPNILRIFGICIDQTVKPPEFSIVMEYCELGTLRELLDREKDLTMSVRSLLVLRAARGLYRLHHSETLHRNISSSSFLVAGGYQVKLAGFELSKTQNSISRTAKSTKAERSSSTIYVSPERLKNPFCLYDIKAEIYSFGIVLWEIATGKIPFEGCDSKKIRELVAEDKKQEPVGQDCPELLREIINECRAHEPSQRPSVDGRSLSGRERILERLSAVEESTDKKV

[7] = target: T1, Protein cereblon/Mixed lineage kinase domain-like protein; test: PROTAC activity at CRBN/MLKL in human HT-29 cells assessed as degraded protein level in cell lysates at 10 uM incubated for 24 hrs measured by capillary immunoassay relative to vehicle treated control; assay type: subcellular
Target sequence in this assay (Q96SW2 whole entry, looked up, one chain of several, the tested form may be a part): as the sequence (Q96SW2 whole entry, looked up, one chain of several, the tested form may be a part) above

[8] = target: T1, Protein cereblon/Mixed lineage kinase domain-like protein; test: PROTAC activity at CRBN/MLKL in human HT-29 cells assessed as degraded protein level in cell lysates incubated for 24 hrs measured by capillary immunoassay relative to vehicle treated control; assay type: subcellular
[9] = target: T1, Protein cereblon/Mixed lineage kinase domain-like protein; test: PROTAC activity at CRBN/MLKL in human HT29 cells assessed as remaining protein level in cell lysates incubated for 72 hrs measured by capillary immunoassay; assay type: subcellular; settings: HT-29
Target sequence in this assay (Q96SW2 whole entry, looked up, one chain of several, the tested form may be a part): as above

[10] = target: T3, Receptor-interacting serine/threonine-protein kinase 1 (Homo sapiens) (UniProt Q13546); test: Binding affinity to wild type human RIPK1 (M1/K305) expressed in bacterial expression system measured upto 10 uM by Eurofins-DiscoverX KINOMEscanTM KdELECT assay
T3 sequence (whole entry): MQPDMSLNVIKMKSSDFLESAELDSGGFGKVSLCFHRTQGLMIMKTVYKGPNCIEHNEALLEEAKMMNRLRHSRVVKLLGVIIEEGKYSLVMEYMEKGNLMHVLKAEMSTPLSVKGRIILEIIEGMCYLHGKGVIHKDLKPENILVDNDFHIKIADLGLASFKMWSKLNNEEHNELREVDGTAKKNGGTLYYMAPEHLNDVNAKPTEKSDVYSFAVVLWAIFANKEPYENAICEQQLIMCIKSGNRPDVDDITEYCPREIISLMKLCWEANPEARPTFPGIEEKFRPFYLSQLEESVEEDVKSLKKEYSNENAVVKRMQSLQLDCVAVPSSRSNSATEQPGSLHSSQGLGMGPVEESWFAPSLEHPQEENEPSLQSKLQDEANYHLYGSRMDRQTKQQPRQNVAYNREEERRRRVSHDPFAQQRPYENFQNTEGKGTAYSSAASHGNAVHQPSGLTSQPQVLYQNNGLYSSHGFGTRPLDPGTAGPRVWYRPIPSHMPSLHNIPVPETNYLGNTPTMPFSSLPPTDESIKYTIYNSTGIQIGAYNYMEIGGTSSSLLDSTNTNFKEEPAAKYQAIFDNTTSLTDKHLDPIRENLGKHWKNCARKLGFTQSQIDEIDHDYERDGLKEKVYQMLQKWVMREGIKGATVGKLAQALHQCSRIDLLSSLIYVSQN

[11] = target: T1, Protein cereblon/Mixed lineage kinase domain-like protein; test: PROTAC activity at CRBN/MLKL in human HT29 cells assessed as remaining protein level in cell lysates at 10 uM incubated upto 8 hrs measured by capillary immunoassay relative to vehicle treated control; assay type: subcellular; settings: HT-29
HT-29 [12] = test: Cytotoxicity against human HT-29 cells assessed as cell viability at 10 uM incubated for 24 hrs in presence of lenalidomide by CellTiter-Glo assay; assay type: toxicity, cell-based; settings: ht-29, 24 h
[13] = target: Protein cereblon/Receptor-interacting serine/threonine-protein kinase 1 (Homo sapiens) (UniProt Q13546+Q96SW2); test: PROTAC activity at CRBN/RIPK1 in human HT29 cells assessed as remaining protein level in cell lysates at 10 uM incubated for 24 hrs measured by capillary immunoassay relative to vehicle treated control; assay type: subcellular; settings: HT-29
Protein cereblon/Receptor-interacting serine/threonine-protein kinase 1 (Homo sapiens), sequence (Q96SW2 whole entry, looked up, one chain of several): as the sequence (Q96SW2 whole entry, looked up, one chain of several, the tested form may be a part) above

[14] = target: Protein cereblon/Receptor-interacting serine/threonine-protein kinase 2 (Homo sapiens) (UniProt O43353+Q96SW2); test: PROTAC activity at CRBN/RIPK2 in human HT29 cells assessed as remaining protein level in cell lysates at 10 uM incubated for 24 hrs measured by capillary immunoassay relative to vehicle treated control; assay type: subcellular; settings: HT-29
Protein cereblon/Receptor-interacting serine/threonine-protein kinase 2 (Homo sapiens), sequence (O43353 whole entry, looked up): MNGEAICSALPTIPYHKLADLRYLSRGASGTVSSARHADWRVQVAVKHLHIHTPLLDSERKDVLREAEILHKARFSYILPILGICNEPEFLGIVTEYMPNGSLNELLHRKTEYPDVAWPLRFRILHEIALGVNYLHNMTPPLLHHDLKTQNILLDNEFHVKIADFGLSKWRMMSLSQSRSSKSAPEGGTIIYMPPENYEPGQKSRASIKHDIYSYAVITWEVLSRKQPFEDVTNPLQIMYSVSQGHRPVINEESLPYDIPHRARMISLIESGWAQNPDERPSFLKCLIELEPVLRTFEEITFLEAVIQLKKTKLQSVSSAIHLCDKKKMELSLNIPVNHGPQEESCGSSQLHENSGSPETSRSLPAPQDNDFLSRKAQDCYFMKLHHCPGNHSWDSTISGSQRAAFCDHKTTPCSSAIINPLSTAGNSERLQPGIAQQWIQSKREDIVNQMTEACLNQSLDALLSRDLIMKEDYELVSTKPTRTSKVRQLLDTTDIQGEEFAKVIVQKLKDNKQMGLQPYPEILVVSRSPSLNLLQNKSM
Protein cereblon/Receptor-interacting serine/threonine-protein kinase 2 (Homo sapiens), sequence (Q96SW2 whole entry, looked up): as the sequence (Q96SW2 whole entry, looked up, one chain of several, the tested form may be a part) above

HT-29 [15] = test: Cytotoxicity against human HT-29 cells assessed as cell viability at 10 uM incubated for 24 hrs in presence of 3-(4-((difluoromethyl)sulfonamido)phenyl)-5-((3-methoxyphenyl)amino)-1H-pyrazole-4-carboxamide by CellTiter-Glo assay; assay type: toxicity, cell-based; settings: ht-29, 24 h
[16] = target: T1, Protein cereblon/Mixed lineage kinase domain-like protein; test: PROTAC activity at CRBN/MLKL in human HK-2 cells assessed as remaining protein level in cell lysates at 0.1 to 10 uM incubated for 24 hrs measured by capillary immunoassay; assay type: subcellular; settings: dose 0.1-10 µM
HT-29 [17] = test: Protection against TSZ-induced necroptosis in human HT-29 cells assessed as cell viability incubated for 24 hrs by CellTiter Glo assay; settings: HT-29, 24 h
[18] = target: T1, Protein cereblon/Mixed lineage kinase domain-like protein; test: PROTAC activity at CRBN/MLKL in TSZ-induced human HT29 cells assessed as suppression of phosphorylated protein in cell lysates at 10 uM incubated for 4 hrs measured by capillary immunoassay; assay type: subcellular; settings: HT-29
[19] = target: Receptor-interacting serine/threonine-protein kinase 3 (Homo sapiens) (UniProt Q9Y572); test: Binding affinity to wild type human RIPK3 (M1/Q307) expressed in bacterial expression system measured upto 10 uM by Eurofins-DiscoverX KINOMEscanTM KdELECT assay
Receptor-interacting serine/threonine-protein kinase 3 (Homo sapiens), sequence (Q9Y572 whole entry, looked up, the tested form may be a part): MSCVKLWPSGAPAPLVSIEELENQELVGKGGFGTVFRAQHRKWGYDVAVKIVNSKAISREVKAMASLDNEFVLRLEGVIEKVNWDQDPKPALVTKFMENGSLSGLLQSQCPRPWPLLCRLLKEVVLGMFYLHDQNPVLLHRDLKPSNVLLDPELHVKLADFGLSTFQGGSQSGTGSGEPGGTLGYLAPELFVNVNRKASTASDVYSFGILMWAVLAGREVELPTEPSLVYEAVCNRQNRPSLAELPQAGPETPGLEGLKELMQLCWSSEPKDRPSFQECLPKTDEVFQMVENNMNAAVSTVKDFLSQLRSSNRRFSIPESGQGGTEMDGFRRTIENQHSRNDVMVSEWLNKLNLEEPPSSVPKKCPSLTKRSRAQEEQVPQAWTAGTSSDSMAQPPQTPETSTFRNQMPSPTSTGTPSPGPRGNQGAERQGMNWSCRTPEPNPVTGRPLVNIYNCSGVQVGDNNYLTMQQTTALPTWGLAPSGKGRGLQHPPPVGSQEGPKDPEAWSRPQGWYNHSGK

[20] = target: T1, Protein cereblon/Mixed lineage kinase domain-like protein; test: PROTAC activity at CRBN/MLKL in human HT29 cells assessed as remaining protein level in cell lysates at 10 uM incubated upto 5 hrs measured by capillary immunoassay relative to vehicle treated control; assay type: subcellular; settings: HT-29

Activity [1]: Active | Activity [2]: Active | Activity [3]: inactive | Activity [4]: Active | Activity [5]: inactive | Activity [6]: Active | Activity [7]: > 90% | EC50 [8]: 2400 nM | Activity ([8]; dose 0.1-10 µM): Dose-Dependent Effect | Activity [9]: Active | Activity [10]: inactive | Activity [11]: Active | Activity [13]: inactive | Activity [14]: inactive | Activity [16]: Active | Activity [18]: Active | Activity [19]: inactive | Activity [20]: < 10%
Structure (SMILES): COc1ccc(C(=O)N2CCC3(CCN(C(=O)CCCCCCCOc4cccc(Nc5[nH]nc(-c6ccc(NS(=O)(=O)C(F)F)cc6)c5C(N)=O)c4)CC3)CC2)cc1N1CCC(=O)NC1=O
Activity (HT-29 [12]): Non-Toxic | Activity (HT-29 [15]): Non-Toxic | EC50 (HT-29 [17]): 1200 nM
